Measured values as given in ChEMBL document CHEMBL1201862, “PubChem BioAssay data set” (2004).
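Values below derive from 48-hour exposures of cells grown in 96-well plates, with endpoints linearly interpolated between the two concentrations bracketing the appropriate inhibition level. Abbreviation: GI50, concentration required for 50% inhibition of growth.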 Active and inactive are the calls of the source. Rule as the data show it: active = GI50 up to about 1.1 µM and inactive = higher.

Columns and labels:
Experiment in all cases: NCI anticancer screen, dose series, 48 h
[1] = system: A549
[2] = system: COLO 205
[3] = system: EKVX
[4] = system: HCC 2998
[5] = system: HCT-116
[6] = system: HL-60
[7] = system: HOP-62
[8] = system: M14
[9] = system: MOLT-4
[10] = system: OVCAR-3
[11] = system: OVCAR-5
[12] = system: RPMI-8226
[13] = system: RXF 393
[14] = system: SF-268
[15] = system: SK-MEL-28
[16] = system: SK-MEL-2
[17] = system: SK-MEL-5
[18] = system: SN12C
[19] = system: UACC-257
[20] = system: UO-31

| SMILES | GI50 [1] | GI50 [2] | GI50 [3] | GI50 [4] | GI50 [5] | GI50 [6] | GI50 [7] | GI50 [8] | GI50 [9] | GI50 [10] | GI50 [11] | GI50 [12] | GI50 [13] | GI50 [14] | GI50 [15] | GI50 [16] | GI50 [17] | GI50 [18] | GI50 [19] | GI50 [20] |
| --- | --- | --- | --- | --- | --- | --- | --- | --- | --- | --- | --- | --- | --- | --- | --- | --- | --- | --- | --- | --- |
| COC(=O)CNS(=O)(=O)c1ccc(-c2c3nc(c(-c4ccc(S(=O)(=O)NCC(=O)OC)cc4)c4ccc([nH]4)c(-c4ccc(S(=O)(=O)NCC(=O)OC)cc4)c4nc(c(-c5ccc(S(=O)(=O)NCC(=O)OC)cc5)c5ccc2[nH]5)C=C4)C=C3)cc1 | > 100 µM (inactive) | > 100 µM (inactive) | > 100 µM (inactive) | > 100 µM (inactive) | > 100 µM (inactive) | > 100 µM (inactive) | > 100 µM (inactive) | 18.7 µM (inactive) | > 100 µM (inactive) | > 100 µM (inactive) | > 100 µM (inactive) | > 100 µM (inactive) | > 100 µM (inactive) | > 100 µM (inactive) | > 100 µM (inactive) | > 100 µM (inactive) | > 100 µM (inactive) | > 100 µM (inactive) | > 100 µM (inactive) | > 100 µM (inactive) |
| Clc1cc2ns[s+]c2cc1Cl | 56.9 µM (inactive) | > 88.3 µM (inactive) | 81.8 µM (inactive) | 59.7 µM (inactive) | 41 µM (inactive) | 19.3 µM (inactive) | 31.8 µM (inactive) | 9.73 µM (inactive) | 29.9 µM (inactive) | 65 µM (inactive) | > 62.7 µM (inactive) | 31 µM (inactive) | > 100 µM (inactive) | 21.1 µM (inactive) | > 81.8 µM (inactive) | > 45.1 µM (inactive) | > 37 µM (inactive) | 58.9 µM (inactive) | > 86.3 µM (inactive) | 28.6 µM (inactive) |
| COc1c(CCl)cc(-c2cc(=O)c3ccccc3s2)cc1CCl | 37.8 µM (inactive) | 3.33 µM (inactive) | > 100 µM (inactive) | 2.29 µM (inactive) | 5.58 µM (inactive) | 2.59 µM (inactive) | 10.6 µM (inactive) | > 100 µM (inactive) | 1.91 µM (inactive) | 11.5 µM (inactive) | > 100 µM (inactive) | 3.77 µM (inactive) | 1.63 µM (inactive) | 9.23 µM (inactive) | > 94.4 µM (inactive) | 10.1 µM (inactive) | 39.4 µM (inactive) | > 100 µM (inactive) | > 100 µM (inactive) | 1.95 µM (inactive) |
| N#Cc1nc(COCCOCc2ccc(F)cc2)oc1N | > 100 µM (inactive) | > 100 µM (inactive) | > 100 µM (inactive) | > 100 µM (inactive) | > 100 µM (inactive) | > 100 µM (inactive) | > 100 µM (inactive) | > 100 µM (inactive) | > 100 µM (inactive) | > 100 µM (inactive) | > 100 µM (inactive) | > 100 µM (inactive) | > 100 µM (inactive) | > 100 µM (inactive) | > 100 µM (inactive) | > 100 µM (inactive) | > 100 µM (inactive) | > 100 µM (inactive) | > 100 µM (inactive) | 50.4 µM (inactive) |
| CC(=O)NNc1nc(C)c(C(/C=C/c2ccc(Cl)cc2)=N\NS(=O)(=O)c2ccc(C)cc2)s1 | > 100 µM (inactive) | > 100 µM (inactive) | > 100 µM (inactive) | > 100 µM (inactive) | > 100 µM (inactive) | > 100 µM (inactive) | > 100 µM (inactive) | > 100 µM (inactive) | > 100 µM (inactive) | > 100 µM (inactive) | > 100 µM (inactive) | > 100 µM (inactive) | > 100 µM (inactive) | > 100 µM (inactive) | > 100 µM (inactive) | > 100 µM (inactive) | > 100 µM (inactive) | > 100 µM (inactive) | > 100 µM (inactive) | > 100 µM (inactive) |
| N#CC[C@@H](O)COc1ccccc1 | > 100 µM (inactive) | > 100 µM (inactive) | > 100 µM (inactive) | > 100 µM (inactive) | > 100 µM (inactive) | > 100 µM (inactive) | > 100 µM (inactive) | > 100 µM (inactive) | > 100 µM (inactive) | > 100 µM (inactive) | > 100 µM (inactive) | > 100 µM (inactive) | > 100 µM (inactive) | > 100 µM (inactive) | > 100 µM (inactive) | > 100 µM (inactive) | > 100 µM (inactive) | > 100 µM (inactive) | > 100 µM (inactive) | > 100 µM (inactive) |
| Cc1ccccc1NC(=O)c1nc(S)nc(N)c1-c1ccccc1C | > 100 µM (inactive) | > 100 µM (inactive) | > 100 µM (inactive) | > 100 µM (inactive) | > 100 µM (inactive) | > 100 µM (inactive) | > 100 µM (inactive) | > 100 µM (inactive) | > 100 µM (inactive) | > 100 µM (inactive) | > 100 µM (inactive) | > 100 µM (inactive) | > 100 µM (inactive) | > 100 µM (inactive) | > 100 µM (inactive) | > 100 µM (inactive) | > 100 µM (inactive) | > 100 µM (inactive) | > 100 µM (inactive) | > 100 µM (inactive) |
| C/C=C(/C)C(=O)OC1CC(C)[C@H]2CC(=O)C(C)=C2CC1C(C)(C)OC(C)=O (stereo not given in full) | 30.3 µM (inactive) | 17.9 µM (inactive) | 39.1 µM (inactive) | 22.6 µM (inactive) | 19.6 µM (inactive) | 21.4 µM (inactive) | 28.9 µM (inactive) | 29.2 µM (inactive) | 26.2 µM (inactive) | 20.3 µM (inactive) | > 100 µM (inactive) | 22.9 µM (inactive) | 22.5 µM (inactive) | 58.2 µM (inactive) | 31 µM (inactive) | 3.95 µM (inactive) | 15.9 µM (inactive) | 42 µM (inactive) | 20.9 µM (inactive) | 23.5 µM (inactive) |
| COc1ccc(N2C(=O)C(Cl)C2c2cc3cc(Br)ccc3nc2Cl)cc1 (stereo not given) | 11 µM (inactive) | 4.91 µM (inactive) | 4.67 µM (inactive) | 4.09 µM (inactive) | 4.68 µM (inactive) | 5.98 µM (inactive) | 6.44 µM (inactive) | 4.86 µM (inactive) | 4.38 µM (inactive) | 8.45 µM (inactive) | 7.96 µM (inactive) | 6.59 µM (inactive) | 4.09 µM (inactive) | 6.38 µM (inactive) | 7.28 µM (inactive) | 5.12 µM (inactive) | 4.37 µM (inactive) | 5.79 µM (inactive) | 5.2 µM (inactive) | 0.701 µM (active) |
| COC(=O)C(=O)Nc1cc2c3c(c1)Oc1cccc4c1C3(C)c1c(cccc1O2)O4 | > 100 µM (inactive) | > 31.6 µM (inactive) | > 82.6 µM (inactive) | > 59.2 µM (inactive) | > 75.2 µM (inactive) | 0.105 µM (active) | > 100 µM (inactive) | > 100 µM (inactive) | 39.2 µM (inactive) | 34.2 µM (inactive) | > 55.2 µM (inactive) | > 44.8 µM (inactive) | 18.7 µM (inactive) | > 100 µM (inactive) | > 100 µM (inactive) | > 87.7 µM (inactive) | > 100 µM (inactive) | > 69.5 µM (inactive) | > 100 µM (inactive) | 98.6 µM (inactive) |
| COc1ccc(C(SCCO)(c2ccccc2)c2ccc(OC)cc2)cc1 | 11 µM (inactive) | 17.9 µM (inactive) | 13.2 µM (inactive) | 5.4 µM (inactive) | 8.41 µM (inactive) | 21.3 µM (inactive) | 15.8 µM (inactive) | 9.31 µM (inactive) | 12.4 µM (inactive) | 16.3 µM (inactive) | 15.2 µM (inactive) | 24.9 µM (inactive) | 8.24 µM (inactive) | 10.2 µM (inactive) | 16.3 µM (inactive) | 11.1 µM (inactive) | 8 µM (inactive) | 14.5 µM (inactive) | 14.7 µM (inactive) | 17.6 µM (inactive) |
| CO[C@H]1C[C@H](O[C@H]2CC[C@@]3(C)[C@H](CC[C@@H]4[C@@H]3CC[C@]3(C)[C@@H](C5=CC(=O)OC5)CC[C@]43O)C2)O[C@H](C)[C@H]1O | < 0.01 µM (active) | 0.0695 µM (active) | < 0.01 µM (active) | 0.015 µM (active) | < 0.01 µM (active) | < 0.01 µM (active) | < 0.01 µM (active) | 0.0168 µM (active) | < 0.01 µM (active) | < 0.01 µM (active) | < 0.0149 µM (active) | < 0.01 µM (active) | < 0.01 µM (active) | < 0.01 µM (active) | 0.024 µM (active) | 0.0151 µM (active) | < 0.01 µM (active) | < 0.01 µM (active) | < 0.0137 µM (active) | < 0.01 µM (active) |
| CSS(C)(=O)=O | 44.7 µM (inactive) | 1.95 µM (inactive) | 27.9 µM (inactive) | 27.8 µM (inactive) | 58.6 µM (inactive) | 24.9 µM (inactive) | 44.2 µM (inactive) | 26.6 µM (inactive) | 2.43 µM (inactive) | 16.7 µM (inactive) | 17.5 µM (inactive) | 1.95 µM (inactive) | 26.5 µM (inactive) | 31.5 µM (inactive) | 21.6 µM (inactive) | 27.3 µM (inactive) | 61.5 µM (inactive) | 21.5 µM (inactive) | 23.9 µM (inactive) | 24.5 µM (inactive) |
| c1ccc(-c2ccc(-c3ccc(C4=NCCN4)cc3)o2)cc1 | 2.64 µM (inactive) | 1.73 µM (inactive) | 3.37 µM (inactive) | 1.35 µM (inactive) | 1.77 µM (inactive) | 1.79 µM (inactive) | 3.67 µM (inactive) | 1.68 µM (inactive) | 1.82 µM (inactive) | 5.5 µM (inactive) | 2.69 µM (inactive) | 0.94 µM (active) | 2.56 µM (inactive) | 2.8 µM (inactive) | 1.8 µM (inactive) | 1.87 µM (inactive) | 2.08 µM (inactive) | 2.99 µM (inactive) | 2.15 µM (inactive) | 1.71 µM (inactive) |
